This is an account of results in the supplement of paper PMC12463676, “Small-molecule dissolution of stress granules by redox modulation benefits ALS models” (Nature Chemical Biology, 2025).

Compound in experiment [1]: O=[As]([O-])(O)O.[K+] [potassium arsenate]
In words: thermal stability z-score vs DMSO; higher = more thermally stabilized by treatment. The settings on record: HeLa; arsenate concentration 1 mM. Here is the method: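 Cellular thermal proteome profiling in HeLa cells treated with 1 mM arsenate for 1 h (DMSO pretreatment), heated to ten temperatures (37-66.3 °C). Soluble protein was quantified by TMT mass spectrometry relative to DMSO controls; the thermal stability score was transformed to a z-score; mean of n = 3 experiments.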

Compound in experiment [2]: NC(=O)CCCCC1CCSS1 [lipoamide]
The experiment is described as above. The settings on record: HeLa, lipoamide concentration 100 µM. Here is the method:
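Cellular thermal proteome profiling in HeLa cells. Cells were treated with 100 µM lipoamide for 1 h, with or without 1 mM arsenate for a further 1 h, then heated to ten temperatures (37-66.3 °C), and soluble protein was quantified by TMT mass spectrometry relative to 0.1% DMSO controls. The thermal stability score (sum of log2 fold changes minus the abundance score) was transformed to a z-score; mean of n = 3 experiments.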

The mark [3] stands for this setting: arsenate co-treatment: 1 mM arsenate 1 h.
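Note: each temperature applied for 3 min, abundance score taken as mean log2 fold change at the two lowest temperatures, z-score obtained by mean subtraction and division by SD.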

Chain of UniProt P78549 (P78549 whole entry): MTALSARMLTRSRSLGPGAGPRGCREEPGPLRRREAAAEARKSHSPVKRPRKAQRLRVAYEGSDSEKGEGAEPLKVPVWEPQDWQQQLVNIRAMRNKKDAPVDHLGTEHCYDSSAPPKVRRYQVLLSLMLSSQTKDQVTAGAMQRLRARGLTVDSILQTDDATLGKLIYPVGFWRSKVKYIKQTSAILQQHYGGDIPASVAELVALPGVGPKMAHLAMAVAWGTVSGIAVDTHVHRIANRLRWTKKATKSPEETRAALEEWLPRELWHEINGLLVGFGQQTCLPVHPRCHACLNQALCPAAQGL
Chain of UniProt P52657 (P52657 whole entry): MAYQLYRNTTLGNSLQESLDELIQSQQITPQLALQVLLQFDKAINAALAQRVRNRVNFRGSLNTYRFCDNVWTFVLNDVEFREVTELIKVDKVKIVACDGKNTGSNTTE
Chain of UniProt Q8N0Z6 (Q8N0Z6 whole entry): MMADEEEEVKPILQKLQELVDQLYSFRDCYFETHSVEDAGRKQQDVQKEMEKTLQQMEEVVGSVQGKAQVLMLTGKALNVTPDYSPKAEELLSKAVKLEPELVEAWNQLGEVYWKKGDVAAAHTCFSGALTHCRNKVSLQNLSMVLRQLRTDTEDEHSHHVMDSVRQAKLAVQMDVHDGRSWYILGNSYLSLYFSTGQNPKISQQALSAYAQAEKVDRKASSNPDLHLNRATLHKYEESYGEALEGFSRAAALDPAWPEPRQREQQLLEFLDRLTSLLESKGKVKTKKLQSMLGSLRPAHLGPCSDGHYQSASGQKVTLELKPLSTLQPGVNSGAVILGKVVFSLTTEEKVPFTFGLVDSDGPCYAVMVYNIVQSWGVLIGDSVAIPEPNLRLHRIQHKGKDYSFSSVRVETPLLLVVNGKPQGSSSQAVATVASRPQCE
Chain of UniProt Q8N4V1 (Q8N4V1 whole entry): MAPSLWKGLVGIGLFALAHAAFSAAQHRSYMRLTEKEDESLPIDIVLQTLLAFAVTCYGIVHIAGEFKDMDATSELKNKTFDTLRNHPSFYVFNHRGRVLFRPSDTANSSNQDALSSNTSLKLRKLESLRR
Chain of UniProt O00625 (O00625 whole entry): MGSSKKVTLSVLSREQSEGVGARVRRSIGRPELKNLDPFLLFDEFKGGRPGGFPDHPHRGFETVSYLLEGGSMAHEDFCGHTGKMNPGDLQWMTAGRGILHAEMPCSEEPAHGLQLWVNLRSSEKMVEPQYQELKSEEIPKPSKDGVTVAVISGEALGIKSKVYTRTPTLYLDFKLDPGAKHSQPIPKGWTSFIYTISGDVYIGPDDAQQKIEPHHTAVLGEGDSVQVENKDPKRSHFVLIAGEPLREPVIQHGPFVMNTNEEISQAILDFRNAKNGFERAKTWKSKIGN
Chain of UniProt P61024 (P61024 whole entry): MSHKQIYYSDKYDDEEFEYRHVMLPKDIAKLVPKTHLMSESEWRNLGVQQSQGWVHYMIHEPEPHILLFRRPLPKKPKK
Chain of UniProt O15084 (O15084 whole entry): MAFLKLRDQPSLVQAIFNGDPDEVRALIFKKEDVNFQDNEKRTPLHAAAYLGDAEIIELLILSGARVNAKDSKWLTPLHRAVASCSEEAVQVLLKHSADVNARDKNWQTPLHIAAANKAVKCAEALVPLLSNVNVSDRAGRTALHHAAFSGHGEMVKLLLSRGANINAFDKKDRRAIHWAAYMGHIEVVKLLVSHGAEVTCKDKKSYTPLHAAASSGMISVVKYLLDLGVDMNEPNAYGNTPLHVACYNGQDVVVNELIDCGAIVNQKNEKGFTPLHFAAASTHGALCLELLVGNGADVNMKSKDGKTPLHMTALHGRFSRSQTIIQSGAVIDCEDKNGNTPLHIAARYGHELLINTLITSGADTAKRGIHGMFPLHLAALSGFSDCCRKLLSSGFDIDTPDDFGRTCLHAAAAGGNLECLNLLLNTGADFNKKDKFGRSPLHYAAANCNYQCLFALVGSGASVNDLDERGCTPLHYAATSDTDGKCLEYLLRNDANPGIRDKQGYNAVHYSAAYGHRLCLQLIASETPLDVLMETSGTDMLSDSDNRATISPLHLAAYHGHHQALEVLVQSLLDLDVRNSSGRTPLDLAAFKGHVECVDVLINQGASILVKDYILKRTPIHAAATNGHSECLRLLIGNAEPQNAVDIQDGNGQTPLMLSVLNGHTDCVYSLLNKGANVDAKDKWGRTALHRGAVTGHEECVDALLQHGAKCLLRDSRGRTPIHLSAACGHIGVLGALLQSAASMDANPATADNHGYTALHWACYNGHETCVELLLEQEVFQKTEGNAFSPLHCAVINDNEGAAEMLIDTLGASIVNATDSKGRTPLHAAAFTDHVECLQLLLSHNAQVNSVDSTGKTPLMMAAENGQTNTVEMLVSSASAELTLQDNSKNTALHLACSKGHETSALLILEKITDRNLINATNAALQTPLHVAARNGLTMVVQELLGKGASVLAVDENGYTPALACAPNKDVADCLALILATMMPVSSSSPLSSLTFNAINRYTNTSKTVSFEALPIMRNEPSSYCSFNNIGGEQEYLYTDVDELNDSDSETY
Chain of UniProt Q9P253 (Q9P253 whole entry): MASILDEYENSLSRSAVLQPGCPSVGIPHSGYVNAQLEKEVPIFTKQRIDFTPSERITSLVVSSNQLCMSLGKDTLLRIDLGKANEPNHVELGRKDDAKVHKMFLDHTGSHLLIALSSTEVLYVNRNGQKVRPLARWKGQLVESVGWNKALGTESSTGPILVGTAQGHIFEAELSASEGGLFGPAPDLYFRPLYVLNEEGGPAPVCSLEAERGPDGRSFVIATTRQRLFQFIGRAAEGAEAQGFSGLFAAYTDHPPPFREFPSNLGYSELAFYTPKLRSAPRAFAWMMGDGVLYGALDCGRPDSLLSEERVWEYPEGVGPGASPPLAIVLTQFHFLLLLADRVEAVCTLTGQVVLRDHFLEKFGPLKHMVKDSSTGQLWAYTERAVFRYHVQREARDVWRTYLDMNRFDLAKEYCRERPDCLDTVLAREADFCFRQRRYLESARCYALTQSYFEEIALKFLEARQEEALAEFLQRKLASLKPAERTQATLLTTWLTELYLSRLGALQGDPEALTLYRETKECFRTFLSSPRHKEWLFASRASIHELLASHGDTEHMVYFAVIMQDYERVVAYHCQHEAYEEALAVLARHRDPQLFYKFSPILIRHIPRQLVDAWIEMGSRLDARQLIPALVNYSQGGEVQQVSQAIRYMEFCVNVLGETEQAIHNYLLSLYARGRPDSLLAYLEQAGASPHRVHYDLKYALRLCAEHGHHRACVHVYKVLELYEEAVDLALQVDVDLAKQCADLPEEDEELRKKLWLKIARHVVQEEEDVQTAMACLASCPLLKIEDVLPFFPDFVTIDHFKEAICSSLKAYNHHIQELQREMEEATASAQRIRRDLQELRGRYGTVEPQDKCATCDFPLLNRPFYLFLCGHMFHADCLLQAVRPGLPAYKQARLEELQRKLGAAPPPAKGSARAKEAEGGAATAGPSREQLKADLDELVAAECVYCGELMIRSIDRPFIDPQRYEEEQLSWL
Chain of UniProt Q96RD7 (Q96RD7 whole entry): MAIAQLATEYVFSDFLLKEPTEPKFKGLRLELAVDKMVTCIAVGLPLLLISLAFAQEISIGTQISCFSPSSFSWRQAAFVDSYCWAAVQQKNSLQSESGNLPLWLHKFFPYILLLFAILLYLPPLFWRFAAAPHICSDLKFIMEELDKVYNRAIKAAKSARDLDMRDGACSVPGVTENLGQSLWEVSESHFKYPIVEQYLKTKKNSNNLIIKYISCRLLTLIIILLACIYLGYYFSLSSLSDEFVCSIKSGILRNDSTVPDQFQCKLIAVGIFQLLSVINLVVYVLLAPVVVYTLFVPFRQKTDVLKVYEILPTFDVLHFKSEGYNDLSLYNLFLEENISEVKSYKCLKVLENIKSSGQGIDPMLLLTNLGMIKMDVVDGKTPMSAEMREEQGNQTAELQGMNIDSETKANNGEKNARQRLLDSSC
Chain of UniProt Q9H9V9 (Q9H9V9 whole entry): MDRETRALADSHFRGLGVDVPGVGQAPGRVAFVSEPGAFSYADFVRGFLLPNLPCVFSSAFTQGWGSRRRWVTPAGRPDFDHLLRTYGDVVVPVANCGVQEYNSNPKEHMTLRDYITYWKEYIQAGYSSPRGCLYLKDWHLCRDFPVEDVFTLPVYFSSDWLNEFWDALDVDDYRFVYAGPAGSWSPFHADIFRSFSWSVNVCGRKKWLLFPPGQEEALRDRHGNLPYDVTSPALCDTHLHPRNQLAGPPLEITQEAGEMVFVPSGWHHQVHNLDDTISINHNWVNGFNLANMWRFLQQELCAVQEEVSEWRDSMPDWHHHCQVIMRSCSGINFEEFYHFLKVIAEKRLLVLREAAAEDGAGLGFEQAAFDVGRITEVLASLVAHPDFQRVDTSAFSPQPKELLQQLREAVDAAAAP
Chain of UniProt Q9UGP4 (Q9UGP4 whole entry): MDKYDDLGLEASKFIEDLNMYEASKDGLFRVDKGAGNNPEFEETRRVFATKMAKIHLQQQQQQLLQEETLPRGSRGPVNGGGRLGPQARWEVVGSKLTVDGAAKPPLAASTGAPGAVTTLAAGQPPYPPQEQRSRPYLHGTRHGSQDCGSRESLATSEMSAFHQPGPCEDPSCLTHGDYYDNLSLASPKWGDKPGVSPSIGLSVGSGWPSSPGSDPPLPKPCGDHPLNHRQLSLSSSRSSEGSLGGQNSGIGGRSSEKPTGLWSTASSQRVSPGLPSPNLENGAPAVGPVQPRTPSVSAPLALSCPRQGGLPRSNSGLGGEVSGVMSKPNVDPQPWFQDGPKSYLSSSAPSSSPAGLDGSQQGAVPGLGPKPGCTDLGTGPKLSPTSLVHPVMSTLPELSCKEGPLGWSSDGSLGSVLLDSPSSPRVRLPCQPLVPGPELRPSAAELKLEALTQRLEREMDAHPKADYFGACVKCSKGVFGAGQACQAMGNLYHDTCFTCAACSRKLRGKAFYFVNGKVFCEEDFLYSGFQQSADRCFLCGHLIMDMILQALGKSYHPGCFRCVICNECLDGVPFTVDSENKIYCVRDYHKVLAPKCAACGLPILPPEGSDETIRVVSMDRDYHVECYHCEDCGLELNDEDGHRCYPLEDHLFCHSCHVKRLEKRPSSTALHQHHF

LAP3 (UniProt P28838): the thermal stability z-score in experiment [1] was 1.29; in experiment [2] (setting [3]), 0.405; in experiment [2] (arsenate co-treatment: none), 0.407.
The corresponding values for GTF2A2 (UniProt P52657) are -0.823, -0.322 and -0.782.
For DENND1A (UniProt Q8TEH3), the thermal stability z-score was -0.185 in experiment [1], -0.118 in experiment [2] (setting [3]) and -0.0262 in experiment [2] (arsenate co-treatment: none).
The corresponding values for CARS (UniProt P49589) are -0.416, -0.705 and -0.132.
As for IGF1R (UniProt P08069), the thermal stability z-score amounted to 0.987 in experiment [1], 0.294 in experiment [2] (setting [3]) and 0.324 in experiment [2] (arsenate co-treatment: none).
On the same counts, the results for MRPS15 (UniProt P82914) are 0.555, 0.673 and 0.571.
On the same counts, the results for EXTL2 (UniProt Q9UBQ6) are 0.453, 1.05 and 0.893.
Consider PIAS4 (UniProt Q8N2W9), for which the thermal stability z-score in experiment [1] amounted to 0.136; in experiment [2] (setting [3]), 0.144; in experiment [2] (arsenate co-treatment: none), 0.2.
On the same counts, the results for NTHL1 (UniProt P78549) are -0.137, 0.00215 and -0.00667.
On the same counts, the results for ANKRD28 (UniProt O15084) are -0.209, -0.25 and -0.0938.
The corresponding values for PIR (UniProt O00625) are -1.25, 3.16 and 2.76.
For PHB (UniProt P35232), the thermal stability z-score came to 0.222 in experiment [1], 0.394 in experiment [2] (setting [3]) and 0.55 in experiment [2] (arsenate co-treatment: none).
On the same counts, the results for DDX19A (UniProt Q9NUU7) are 0.954, 0.865 and 1.2.
On the same counts, the results for MMGT1 (UniProt Q8N4V1) are 0.966, 0.584 and 0.397.
The corresponding values for TTC5 (UniProt Q8N0Z6) are -0.0548, -0.0841 and 0.0677.
Regarding CD9 (UniProt P21926), the thermal stability z-score is 0.251 in experiment [1], 1.93 in experiment [2] (setting [3]) and 1.62 in experiment [2] (arsenate co-treatment: none).
The corresponding values for KEAP1 (UniProt Q14145) are 4.65, 2.32 and 2.11.
Turning to HEATR1 (UniProt Q9H583), the thermal stability z-score is -0.114 in experiment [1], -1.73 in experiment [2] (setting [3]) and -1.13 in experiment [2] (arsenate co-treatment: none).
Consider SEZ6L2 (UniProt Q6UXD5), for which the thermal stability z-score in experiment [1] amounted to 3.82; in experiment [2] (setting [3]) it was 0.143; in experiment [2] (arsenate co-treatment: none) it was 2.4.
With TOMM40 (UniProt O96008), the thermal stability z-score in experiment [1] came out at 1.15; in experiment [2] (setting [3]), 0.59; in experiment [2] (arsenate co-treatment: none), 0.961.
The corresponding values for FTO (UniProt Q9C0B1) are 1.38, -0.0697 and -0.447.
On the same counts, the results for PLXNA1 (UniProt Q9UIW2) are -0.00413, 0.316 and -0.385.
The corresponding values for VPS18 (UniProt Q9P253) are 0.788, -0.401 and -0.805.
For ST7 (UniProt Q9NRC1), the thermal stability z-score in experiment [1] is -1.16; in experiment [2] (setting [3]), -0.0918; in experiment [2] (arsenate co-treatment: none), 0.0296.
The corresponding values for CD44 (UniProt P16070) are 0.197, 0.358 and 0.287.
The corresponding values for PAFAH1B1 (UniProt P43034) are -0.241, 0.258 and -0.161.
For the target TDRD3 (UniProt Q9H7E2), the thermal stability z-score in experiment [1] was -0.796; in experiment [2] (setting [3]), -0.448; in experiment [2] (arsenate co-treatment: none), 0.0394.
On the same counts, the results for FOXRED2 (UniProt Q8IWF2) are 0.897, -1.43 and -1.2.
Regarding JMJD4 (UniProt Q9H9V9), the thermal stability z-score in experiment [1] was found to be 0.0203; in experiment [2] (setting [3]), 0.073; in experiment [2] (arsenate co-treatment: none), 0.027.
On the same counts, the results for ZMYM4 (UniProt Q5VZL5) are -0.646, -0.347 and 0.0509.
On the same counts, the results for RFK (UniProt Q969G6) are 0.313, -0.697 and -0.27.
On the same counts, the results for RPS17 (UniProt P08708) are -0.614, 0.31 and -0.0463.
Consider SMG7 (UniProt Q92540), for which the thermal stability z-score in experiment [1] was -0.0408; in experiment [2] (setting [3]), -0.0753; in experiment [2] (arsenate co-treatment: none) it was -0.0219.
On the same counts, the results for HK1 (UniProt P19367) are 0.159, 0.339 and 0.466.
For the target CKS1B (UniProt P61024), the thermal stability z-score in experiment [1] was 0.573; in experiment [2] (setting [3]), 0.525; in experiment [2] (arsenate co-treatment: none), 0.603.
Turning to MPRIP (UniProt Q6WCQ1), the thermal stability z-score amounted to 0.452 in experiment [1], 0.435 in experiment [2] (setting [3]) and 0.401 in experiment [2] (arsenate co-treatment: none).
The corresponding values for CHP1 (UniProt Q99653) are 1.28, 0.377 and 0.436.
The corresponding values for KATNAL1 (UniProt Q9BW62) are -0.0764, 0.798 and -0.886.
On the same counts, the results for LIMD1 (UniProt Q9UGP4) are -5.26, -1.08 and -0.705.
With PANX1 (UniProt Q96RD7), the thermal stability z-score in experiment [1] worked out at 0.123; in experiment [2] (setting [3]) it was 0.67; in experiment [2] (arsenate co-treatment: none), 0.0977.
On the same counts, the results for ADAM10 (UniProt O14672) are -0.0434, -1.72 and -1.52.
On the same counts, the results for UNC13D (UniProt Q70J99) are -0.283, -0.15 and -0.154.
